Measurements taken from US20230372263A1, “METHODS AND COMPOSITIONS FOR TREATING AMYOTROPHIC LATERAL SCLEROSIS” (Amylyx Pharmaceuticals, Inc., priority 2022, published 2023).
Where two headings read alike, the source gives them in different places.

Legend:
[1] = Phase I single dose oral AMX0035 fasted/fed plasma pharmacokinetics and food effect (Protocol A35-002); assay type: in vivo, human; details: for Frel AUC(0-inf) / Frel AUC(0-last) / Frel Cmax: fed relative to fasted
Experimental: • Protocol AMX3500: sparse sampling in 87 subjects with ALS. Approximately 2 samples are collected for each subject, 1 or 4 hours post dose following 12 and 24 weeks of treatment. • Protocol A35-002: rich sampling in 14 healthy adults. Approximately 21 samples are collected over 24 hours for each subject on two occasions, once following a high fat meal and the other under fasting conditions.
A total of 14 healthy subjects were enrolled in order to have no fewer than 12 subjects complete. A predefined mix of gender was selected.
Each study period followed the same study design (FIG. 1). Subjects were screened for inclusion in the study up to 28 days before dosing. Subjects were admitted to the clinical unit during Study Day −2 for Period 1 and Day −1 for Period 2 and were dosed in the morning of Day 1. On the night prior to Period 1 the subjects in the fasted/fed or fed/fasted sequence were fasted for a minimum of 10 h prior to dosing.
The solution was stirred until the powder was mostly dissolved.
Any departures from the intended regimen were recorded in the eCRFs. All dose administrations were performed in the study center under the supervision of appropriately trained staff.
Subjects were provided with a light snack and were then fasted from all food and drink (except water) until the following morning, when they were provided with a high-fat breakfast. The breakfast was consumed over a maximum period of 25 min, and dosing occurred 30 min after the start of breakfast. Subjects were encouraged to eat their meal evenly over the 25 min period. For this trial the subject was deemed compliant if they consumed >80% of the high-fat standard breakfast.
The subjects in the 24-h baseline and in the fasted condition Period remained fasted up to 4 h post-dose and were offered a standardized meal to be taken between 4.00 and 5.00 h post-dose. Subjects in the fed condition were fasted overnight and received a high-fat standard breakfast 30 minutes pre-dose and then remained fasted for 4.00 to 5.00 h post-dose when they received a standardized meal.
Venous blood samples were withdrawn via an indwelling cannula or by venipuncture according to the time schedule presented in Table 5 Table, Table 6, and Table 7.
Blood samples of approximately 4 mL were collected into 4 mL BD Vacutainer Plastic K2EDTA Tubes with Lavender Hemogard Closure, and was gently inverted approximately 8 times. The tubes were then immediately stored on ice and processed within 60 min of collection by centrifugation at 1500 g for 10 min at 2 to 8° C. The resultant plasma was separated equally into 2 aliquots and transferred to 2 mL appropriately labelled primary and backup polypropylene cryovials.
Actual elapsed time from dosing was to be used for the final plasma PK parameter calculations after database lock.

[2] = Population pharmacokinetic model and simulations of PB and PAA (healthy subjects and ALS patients); design: species or system human; details: for Cmax, Mean: from individual Bayesian (post hoc) parameter estimates; for Cmax, 2.5th percentile / Cmax, 97.5th percentile / Cmax, Geometric mean / Cmax, Median: post hoc Bayesian estimates; for V, volume of distribution of PAA: population PK
From the text: The order of administration with and without food was randomly assigned. […] Subjects were advised to take the drug before a meal. […] No inter-occasion variability (IOV) was included.

[3] = single dose AMX0035 fasted, Geometric Mean
[4] = single dose AMX0035 fasted, Max
[5] = single dose AMX0035 fasted, Median
[6] = single dose AMX0035 fasted, Min
[7] = single dose AMX0035 fed, Geometric Mean
[8] = single dose AMX0035 fed, Median

O=C(O)Cc1ccccc1 [PAA, phenylacetate]
T1/2 ([1]; Table 1: fasted, geometric mean (CV%), terminal half-life): 48.8 min | Tmax ([1]; Table 1: fasted, median (range)): 150 min | AUC(0-inf) ([1]; both sexes, human, in vivo, Table 1: fasted, geometric mean (CV%), read-out: AUC(0-inf)): 83400 ng·h/mL | half-life ([1]; both sexes, human, in vivo, Table 1: fasted, geometric mean (CV%), terminal half-life, read-out: T1/2 (converted)): 48.6 min | half-life ([1]; both sexes, human, in vivo, fasted, read-out: elimination half-lives (range)): 41.4 to 57 min | half-life ([1]; both sexes, human, in vivo, fed, read-out: elimination half-lives (range)): 36 to 62.4 min | Cmax ([1]; both sexes, human, in vivo, po, Table 1: single oral dose ALBRIOZA, healthy subjects, fasted, geometric mean (CV%), read-out: Cmax): 26400 ng/mL | AUC(0-inf) ([1]; both sexes, human, in vivo, po, single oral AMX0035, Fasted (N = 13), healthy subjects, PK analysis subset, read-out: AUC(0-inf), Adj Geo Mean): 84800 ng·h/mL | AUC(0-t) ([1]; both sexes, human, in vivo, po, single oral AMX0035, Fasted (N = 13), healthy subjects, PK analysis subset, read-out: AUC(0-last), Adj Geo Mean): 83200 ng·h/mL | Cmax ([1]; both sexes, human, in vivo, po, single oral AMX0035, Fasted (N = 13), healthy subjects, PK analysis subset, read-out: Cmax, Adj Geo Mean): 26600 ng/mL | AUC(0-inf) ([1]; both sexes, human, in vivo, po, single oral AMX0035, Fed (N = 13), healthy subjects, PK analysis subset, read-out: AUC(0-inf), Adj Geo Mean): 59800 ng·h/mL | AUC(0-t) ([1]; both sexes, human, in vivo, po, single oral AMX0035, Fed (N = 13), healthy subjects, PK analysis subset, read-out: AUC(0-last), Adj Geo Mean): 58200 ng·h/mL | Cmax ([1]; both sexes, human, in vivo, po, single oral AMX0035, Fed (N = 13), healthy subjects, PK analysis subset, read-out: Cmax, Adj Geo Mean): 16100 ng/mL | Cmax ([1]; both sexes, human, in vivo, single dose AMX0035, healthy subjects, fasting, read-out: mean Cmax): 26400 ng/mL | AUC(0-inf) ([1]; both sexes, human, in vivo, single dose AMX0035 fasted, Geometric Mean, read-out: AUC(0-inf)): 83400 ng·h/mL | AUC(0-t) ([1]; both sexes, human, in vivo, single dose AMX0035 fasted, Geometric Mean, read-out: AUC(0-last)): 81800 ng·h/mL | Cmax ([1]; both sexes, human, in vivo, single dose AMX0035 fasted, Geometric Mean, read-out: Cmax): 26400 ng/mL | half-life ([1]; both sexes, human, in vivo, single dose AMX0035 fasted, Geometric Mean, read-out: T1/2 (converted)): 48.8 min | AUC(0-inf) ([1]; both sexes, human, in vivo, single dose AMX0035 fasted, Median, read-out: AUC(0-inf)): 80700 ng·h/mL | AUC(0-t) ([1]; both sexes, human, in vivo, single dose AMX0035 fasted, Median, read-out: AUC(0-last)): 79300 ng·h/mL | Cmax ([1]; both sexes, human, in vivo, single dose AMX0035 fasted, Median, read-out: Cmax): 27700 ng/mL | half-life ([1]; both sexes, human, in vivo, single dose AMX0035 fasted, Median, read-out: T1/2 (converted)): 50 min | AUC(0-inf) ([1]; both sexes, human, in vivo, single dose AMX0035 fed, Geometric Mean, read-out: AUC(0-inf)): 58300 ng·h/mL | AUC(0-t) ([1]; both sexes, human, in vivo, single dose AMX0035 fed, Geometric Mean, read-out: AUC(0-last)): 56700 ng·h/mL | Cmax ([1]; both sexes, human, in vivo, single dose AMX0035 fed, Geometric Mean, read-out: Cmax): 15900 ng/mL | half-life ([1]; both sexes, human, in vivo, single dose AMX0035 fed, Geometric Mean, read-out: T1/2 (converted)): 46.8 min | AUC(0-inf) ([1]; both sexes, human, in vivo, single dose AMX0035 fed, Median, read-out: AUC(0-inf)): 54500 ng·h/mL | AUC(0-t) ([1]; both sexes, human, in vivo, single dose AMX0035 fed, Median, read-out: AUC(0-last)): 53100 ng·h/mL | Cmax ([1]; both sexes, human, in vivo, single dose AMX0035 fed, Median, read-out: Cmax): 16000 ng/mL | half-life ([1]; both sexes, human, in vivo, single dose AMX0035 fed, Median, read-out: T1/2 (converted)): 47 min | Tmax ([1]; both sexes, human, in vivo, non parametric analysis, PK analysis subset, Fasted, read-out: Tmax Median): 150 min | peak exposure to metabolite as % of that for parent ([1]; fasted): approximately 14% | time from which plasma concentrations were evident ([1]; fasted): 0.25 h | total exposure to metabolite based on AUC(0-inf) as % of that for parent ([1]; fasted): approximately 35% | peak exposure to metabolite as % of that for parent ([1]; fed): approximately 34% | total exposure to metabolite based on AUC(0-inf) as % of that for parent ([1]; fed): approximately 48% | Frel AUC(0-inf) ([1]; Geometric Mean): 70.606% | Frel AUC(0-last) ([1]; Geometric Mean): 70.024% | Frel Cmax ([1]; Geometric Mean): 60.480% | Frel AUC(0-inf) ([1]; Max): 91.45% | Frel AUC(0-last) ([1]; Max): 91.27% | Frel Cmax ([1]; Max): 86.29% | Frel AUC(0-inf) ([1]; Median): 70.563% | Frel AUC(0-last) ([1]; Median): 69.952% | Frel Cmax ([1]; Median): 58.065% | Frel AUC(0-inf) ([1]; Min): 58.16% | Frel AUC(0-last) ([1]; Min): 57.31% | Frel Cmax ([1]; Min): 45.73% | Tmax Median ([1]; non parametric analysis, PK analysis subset, Fed): 150 min | AUCextrap [1, 3]: 1.779% | Lambda-z [1, 3]: 0.8527 h⁻¹ | AUC(0-inf) [1, 4]: 142000 ng·h/mL | AUC(0-last) [1, 4]: 141000 ng·h/mL | AUCextrap [1, 4]: 3.18% | Lambda-z [1, 4]: 0.9999 h⁻¹ | T1/2 [1, 4]: 57 min | Tmax [1, 4]: 210 min | AUCextrap [1, 5]: 1.963% | Lambda-z [1, 5]: 0.8310 h⁻¹ | Tmax [1, 5]: 150 min | AUC(0-inf) [1, 6]: 45200 ng·h/mL | AUC(0-last) [1, 6]: 43800 ng·h/mL | AUCextrap [1, 6]: 1.06% | Lambda-z [1, 6]: 0.7287 h⁻¹ | T1/2 [1, 6]: 41.4 min | Tmax [1, 6]: 90 min | AUCextrap [1, 7]: 2.485% | Lambda-z [1, 7]: 0.8886 h⁻¹ | AUC(0-inf) ([1]; single dose AMX0035 fed, Max): 130000 ng·h/mL | AUC(0-last) ([1]; single dose AMX0035 fed, Max): 128000 ng·h/mL | AUCextrap ([1]; single dose AMX0035 fed, Max): 4.13% | Lambda-z ([1]; single dose AMX0035 fed, Max): 1.1486 h⁻¹ | T1/2 ([1]; single dose AMX0035 fed, Max): 62.4 min | Tmax ([1]; single dose AMX0035 fed, Max): 270 min | AUCextrap [1, 8]: 2.680% | Lambda-z [1, 8]: 0.8899 h⁻¹ | Tmax [1, 8]: 150 min | AUC(0-inf) ([1]; single dose AMX0035 fed, Min): 31900 ng·h/mL | AUC(0-last) ([1]; single dose AMX0035 fed, Min): 30600 ng·h/mL | AUCextrap ([1]; single dose AMX0035 fed, Min): 1.26% | Lambda-z ([1]; single dose AMX0035 fed, Min): 0.6696 h⁻¹ | T1/2 ([1]; single dose AMX0035 fed, Min): 36 min | Tmax ([1]; single dose AMX0035 fed, Min): 120 min | higher exposure in females compared to males ([1]; single oral dose, fed and fasted): ~31% | Cmax, Mean ([2]; ALS patients, Fasting): 24100 ng/mL | Cmax, 2.5th percentile ([2]; ALS patients, Fasting): 10100 ng/mL | Cmax, 97.5th percentile ([2]; ALS patients, Fasting): 44200 ng/mL | Cmax, Geometric mean ([2]; ALS patients, Fasting): 22300 ng/mL | Cmax, Median ([2]; ALS patients, Fasting): 23800 ng/mL | Cmax, Mean ([2]; ALS patients, Fed): 16600 ng/mL | Cmax, 2.5th percentile ([2]; ALS patients, Fed): 8160 ng/mL | Cmax, 97.5th percentile ([2]; ALS patients, Fed): 25300 ng/mL | Cmax, Geometric mean ([2]; ALS patients, Fed): 15600 ng/mL | Cmax, Median ([2]; ALS patients, Fed): 16900 ng/mL | estimated steady-state mean Cmax ([2]; ALS patients, based on population PK): 24100 ng/mL | V, volume of distribution of PAA ([2]; Bootstrap Median): 56.1 L | V, volume of distribution of PAA ([2]; Final Model mean estimate): 56.3 L
